Results taken from patent US4243671A, “Inhibition of thromboxane synthetase formation and arachidonic acid-induced platelet aggregation and bronchoconstriction” (E. R. Squibb & Sons, Inc., priority 1979, dated 1981).

What was measured:
thromboxane synthetase [1] = details: cited from earlier work
[2] = system: arachidonic acid-induced bronchoconstriction; assay: Inhibition of arachidonic acid-induced bronchoconstriction in the anesthetized guinea pig; format: in vivo
Description: (§1) Male guinea pigs weighing 480-520 g are anesthetized with urethane (1.5 g/kg, i.p.). Spontaneous respiration is arrested with succinylchloline chloride (1.5 mg/kg, i.p.). The guinea pigs are artificially ventilated with a Palmer respiration pump through a tracheal cannula at a rate of 72 strokes/min and a stroke volume of 3 ml.
(§2) Pulmonary resistance and dynamic compliance are determined by the method described by Amdur and Mead, "Mechanics of Respiration in Unanesthetized Guinea Pigs", Amer. J. Physiol. 192, 364-368, as modified by Giles et al. (1973), "The Bronchodilator and Cardiac Stimulant Effects of Th 1165A, Salbutamol, and Isoproterenol", J. Pharmacol. Exp. Ther. 186, 472-481. Respiratory flow is measured with a Fleisch pneumotachograph (No. 000) and a Validyne (MP 45) differential pressure transducer. Transpulmonary pressure is determined by monitoring the difference between pressure in the external end of a tracheal cannula and the pressure in the pleural cavity by means of a Validyne MP 45 differential pressure transducer. The flow and pressure signals are fed into an on-line analog Pulmonary Mechanics Computer (Buxco Electronics, Inc.) which provides calculation of pulmonary resistance and dynamic compliance. The computer output of flow, pressure, volume, resistance and dynamic compliance are recorded on a Brush 260 recorder. Blood pressure is measured from a carotid artery with a Statham P23Db transducer and heart rate is derived from the pulse pressure. Both blood pressure and heart rate are recorded with the Buxco pulmonary mechanics computer. All parameters are digitalized by a Data Logger, Model DL-12 Buxco electronics and recorded on a Texas Instrument silent 700 ASR printer.
Arachidonic acid (AA) (0.25 mg/kg i.v.) is administered to groups of 4-5 guinea pigs 15 minutes before and 3 and 10 minutes after the administration of the test compound (0.1, 0.3 and 1.0 mg/kg i.v.). The administration of AA causes substantial increases in pulmonary resistance (R) and decrease in dynamic compliance (C) of 70% and 50% respectively. […] The inhibitory effect of the test compound lasts for less than 10 minutes.

[3] = system: histamine-induced bronchoconstriction; assay: Specificity test: histamine-induced bronchoconstriction in the anesthetized guinea pig; format: in vivo; details: 1.0 mg/kg i.v.; histamine 5.0 μg/kg i.v.
Description: as §1
as §2, with “The flow and pressure signals are fed into an on-line analog Pulmonary Mechanics Computer (Buxco Electronics, Inc.) which provides calculation of pulmonary resistance and dynamic compliance.” left out, “All parameters are digitalized by a Data Logger, Model DL-12 Buxco electronics and recorded on a Texas Instrument silent 700 ASR printer.” left out

Thromboxane synthetase [4] = biological target: T1, Thromboxane synthetase (Homo sapiens, UniProt P24557); assay: Inhibition of thromboxane synthetase (platelet membrane preparation, 14C-arachidonic acid to thromboxane-B2); format: biochemical
T1 construct: from tissue; host or cells: blood platelets from fresh platelet-rich plasma (PRP), lysed membrane suspension
T1 sequence (P24557 1-533): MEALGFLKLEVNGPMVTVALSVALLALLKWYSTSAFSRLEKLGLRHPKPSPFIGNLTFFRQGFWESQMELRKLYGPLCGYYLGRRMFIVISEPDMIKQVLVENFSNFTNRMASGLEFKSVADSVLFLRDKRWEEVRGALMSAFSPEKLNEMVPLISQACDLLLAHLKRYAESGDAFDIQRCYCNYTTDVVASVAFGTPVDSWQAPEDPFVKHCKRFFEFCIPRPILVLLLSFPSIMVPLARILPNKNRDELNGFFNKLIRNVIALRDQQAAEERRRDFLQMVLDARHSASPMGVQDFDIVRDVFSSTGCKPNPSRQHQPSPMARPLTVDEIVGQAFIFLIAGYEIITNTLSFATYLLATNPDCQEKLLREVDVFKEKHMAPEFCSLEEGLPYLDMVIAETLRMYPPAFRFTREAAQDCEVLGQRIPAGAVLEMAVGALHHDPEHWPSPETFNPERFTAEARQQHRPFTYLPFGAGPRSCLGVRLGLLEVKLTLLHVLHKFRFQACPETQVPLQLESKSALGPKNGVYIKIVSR
Description: Thromboxane synthetase is prepared from fresh PRP according to the procedure of Nijkamp et al, supra. Briefly, a platelet pellet is washed in physiological saline, and the platelets lysed by a combination of freeze-thaw cycles and homogenizations. This platelet membrane suspension is divided into small aliquots and stored at -70° C. until used. Thromboxane synthetase activity is determined by incubating the platelet preparation with ^14 C-arachidonic acid in a reaction mixture containing epinephrine, reduced glutathione, and Tris-HCl buffer, pH 7.5. Thromboxane synthetase activity is determined in the presence of the test compound dissolved in methanol, or of the methanol control. The reaction is carried out for 3-5 minutes at 37° C. and stopped by the addition of 2N HCl. In some instances, aliquots of the reaction mixtures are spotted directly on Quantum thin layer plates for thin layer chromatography of reaction mixture components. In other experiments, the lipids in the reaction mixture are extracted into ethyl acetate. After the ethyl acetate is taken to dryness, the lipid residue is dissolved in ethanol and aliquots spotted on the thin layer plates. In either instance, the plates are developed using chloroform:methanol:acetic acid (90:5:5) as solvent system. […] The radioactivity that migrates in the area of thromboxane-B2 is then determined by liquid scintillation spectrometry.

[5] = system: arachidonic acid induced platelet aggregation; assay: Inhibition of arachidonic acid induced platelet aggregation in platelet-rich plasma; format: cell-based; details: arachidonic acid 800 μM, human PRP
Description: Venous blood is collected from the antecubital vein of human volunteers who are drug free for at least one week. The blood is collected by gravity into plastic transfer bags containing 0.38% sodium citrate as the anticoagulant. Platelet-rich plasma (PRP) is prepared by centrifuging the citrated blood at 200×g for 10 min at 25° C. Platelet-poor plasma (PPP) is obtained by centrifuging the PRP at 2500×g for 30 min at 25° C. Platelet aggregation is studied photometrically (Boron, Nature 194:927-929,1962) using a Chronolog aggregometer connected to a linear recorder. The test compound is dissolved in methanol and preincubated with PRP for 2.5 minutes at 37° C. Arachidonic acid (800 μM) dissolved in 0.1 M Tris-HCl buffer, pH 8.5, is then added and the optical transmission recorded for at least 3 minutes. The rate of increase in optical transmission, which is a measure of the initial velocity of aggregation, is measured by determining the slope of the steepest part of the curve.

duration of hypertension ([2]; 0.1, 0.3 and 1.0 mg/kg i.v.) | inhibition at 1000 µM (Thromboxane synthetase [4]; at 1000 μM) | IC50 (Thromboxane synthetase [4]; read-out: I50 thromboxane synthetase) | IC50 ([5]; read-out: I50 (concentration to achieve 50% inhibition) of platelet aggregation) | Compound | inhibition of thromboxane synthetase (literature) (thromboxane synthetase [1]) | effect of compound alone on R, C or heart rate ([2]; 0.1, 0.3 and 1.0 mg/kg i.v.) | effect on blood pressure ([2]; 0.1, 0.3 and 1.0 mg/kg i.v.) | duration of inhibitory effect on AA-induced changes ([2]; 0.1-1.0 mg/kg i.v.) | effect on AA-induced changes in pulmonary resistance (R) and dynamic compliance (C) ([2]; 0.1-1.0 mg/kg i.v. given before AA 0.25 mg/kg i.v.) | effect on histamine-induced increases in R and decreases in C [3] | inhibition at 1000 µM ([5]; screening concentration 1 mM, read-out: effectiveness in inhibiting platelet aggregation)
 |  |  |  | c1c[nH]cn1 [imidazole] | specific inhibitor |  |  |  |  |  | 
up to 30 minutes | 83% | 30 µM | 30 µM | C(=Cc1ccccc1)Cn1ccnc1.Cl [test compound, 1-(3-phenyl-2-propenyl)-1H-imidazole, hydrochloride (1:1)] |  | does not significantly alter | profound hypertension of long duration | less than 10 minutes | significant dose dependent decrease | not altered | 100%
